Measured values reported in PMC8155022 (Scientific Reports, 2021).
Where “and” joins values, the source holds several entries; their conditions need not be identical. Identical values can stand only once. Entries after “also recorded” stand apart in the source; their conditions may differ. Like-named read-outs stand apart in the source and are kept apart here.

Columns and labels:
CCKA = CCKA (Homo sapiens, UniProt P32238); assay: GPCR panel, cAMP or calcium FLIPR assays; type: cell-based
Method: (§1) 28 GPCRs were evaluated through cAMP or calcium FLIPR assays[67].

MOP = MOP (Homo sapiens, UniProt P35372); assay: GPCR panel, cAMP or calcium FLIPR assays; type: cell-based
Sequence of MOP (P35372 whole entry): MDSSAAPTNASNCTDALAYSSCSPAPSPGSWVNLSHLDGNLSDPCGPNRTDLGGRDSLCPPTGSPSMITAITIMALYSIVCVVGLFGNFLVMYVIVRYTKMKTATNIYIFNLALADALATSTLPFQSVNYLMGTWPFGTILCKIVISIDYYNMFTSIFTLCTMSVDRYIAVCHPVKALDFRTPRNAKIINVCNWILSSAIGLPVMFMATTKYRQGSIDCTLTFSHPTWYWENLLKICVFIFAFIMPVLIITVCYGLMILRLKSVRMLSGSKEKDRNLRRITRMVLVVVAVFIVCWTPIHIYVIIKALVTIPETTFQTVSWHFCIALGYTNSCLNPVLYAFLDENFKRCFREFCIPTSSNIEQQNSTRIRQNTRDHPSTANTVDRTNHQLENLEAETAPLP
Method: 28 GPCRs were evaluated through cAMP or calcium FLIPR assays[67]. A panel of 52 different receptors, ion channels and transporters was tested by Cerep, Inc. (Redmond, WA). Kinase selectivity was conducted by Eurofins Panlabs Inc (St Charles, MO).

ORL1 (h) (NOP) = target: T1, ORL1 (h) (NOP) (Homo sapiens, UniProt P41146); assay: Cerep panel; type: binding
T1 construct: purchased Cerep (receptors, ion channels, transporters); Eurofins Panlabs (kinases)
T1 sequence (P41146 whole entry): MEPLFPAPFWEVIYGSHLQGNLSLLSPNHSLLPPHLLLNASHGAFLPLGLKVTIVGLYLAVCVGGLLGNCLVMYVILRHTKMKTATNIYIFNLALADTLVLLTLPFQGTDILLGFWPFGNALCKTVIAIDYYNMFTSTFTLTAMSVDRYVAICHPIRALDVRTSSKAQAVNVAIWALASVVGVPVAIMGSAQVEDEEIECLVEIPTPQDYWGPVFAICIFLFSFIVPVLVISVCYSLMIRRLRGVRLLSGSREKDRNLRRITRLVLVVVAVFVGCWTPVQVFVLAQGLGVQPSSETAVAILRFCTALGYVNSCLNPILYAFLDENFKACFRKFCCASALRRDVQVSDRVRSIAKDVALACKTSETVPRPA
Method: (§2) A panel of 52 different receptors, ion channels and transporters was tested by Cerep, Inc. (Redmond, WA).

[1] = tested on: mouse collagen-induced arthritis (CIA) model; assay: mouse collagen-induced arthritis (CIA) model; type: in vivo; conditions: for reduction of clinical arthritis scores (AUC) vs vehicle, efficacy % inhibition: day 21-35
Method: On Day 0, mice (female DBA/1Lacj, Jackson Laboratories; 8–10 weeks) were immunized at the base of the tail with an emulsion containing equal amounts of Chick Type II Collagen (Chondrex, Redmond, WA) and Complete-Freund’s adjuvant (CFA, Chondrex), 100 µg each per mouse, and administered a second immunization boost on day 21. On this day, animals were examined for clinical arthritis scores and randomized into treatment groups. […] Clinical arthritis scores were evaluated from day 21 to 34, and animals were euthanized under CO2 on day 35. Both hind paws from each animal were collected and fixed in 10% neutral buffered formalin for histopathology.

PKCα(h) = target: T2, PKCα(h) (Homo sapiens, UniProt P17252); assay: Kinase panel; type: biochemical
T2 construct: purchased Cerep (receptors, ion channels, transporters); Eurofins Panlabs (kinases)
Method: (§3) Kinase selectivity was conducted by Eurofins Panlabs Inc (St Charles, MO).

[2] = mouse PK/PD model, plasma exposure; type: in vivo; conditions: female, C57B6, mouse, 100 mg/kg oral
Description: Compound concentrations are also listed as undiluted (measured) and diluted (extrapolated) in Supplementary Table S2.

5HT2B = 5HT2B (Homo sapiens, UniProt P41595); assay: Cerep panel; type: binding; set-up: purchased Cerep (receptors, ion channels, transporters); Eurofins Panlabs (kinases)
Sequence of 5HT2B (P41595 whole entry): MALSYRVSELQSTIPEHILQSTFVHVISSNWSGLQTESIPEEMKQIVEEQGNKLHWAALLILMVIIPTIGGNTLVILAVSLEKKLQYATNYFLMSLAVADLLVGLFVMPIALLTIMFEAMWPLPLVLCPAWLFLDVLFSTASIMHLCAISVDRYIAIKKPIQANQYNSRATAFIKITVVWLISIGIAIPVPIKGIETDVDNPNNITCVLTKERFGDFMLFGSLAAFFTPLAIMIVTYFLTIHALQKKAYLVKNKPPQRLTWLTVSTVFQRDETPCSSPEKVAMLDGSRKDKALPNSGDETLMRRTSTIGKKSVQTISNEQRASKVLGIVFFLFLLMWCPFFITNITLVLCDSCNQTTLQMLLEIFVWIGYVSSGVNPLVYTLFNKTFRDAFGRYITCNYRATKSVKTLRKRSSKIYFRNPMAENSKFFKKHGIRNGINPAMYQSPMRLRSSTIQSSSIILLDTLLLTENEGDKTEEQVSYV
Method: as §2

Pim-2(h) = target: T3, Pim-2(h) (Homo sapiens, UniProt Q9P1W9); assay: Kinase panel; type: biochemical
T3 construct: purchased Cerep (receptors, ion channels, transporters); Eurofins Panlabs (kinases)
Method: as §3

NK2 = NK2 (Homo sapiens, UniProt P21452); assay: follow-up functional study; type: cell-based
B2 (h) = target: T4, B2 (h) (Homo sapiens, UniProt P30411); assay: Cerep panel; type: binding
T4 construct: purchased Cerep (receptors, ion channels, transporters); Eurofins Panlabs (kinases)
Method: as §2

CK2α2(h) = target: T5, CK2α2(h) (Homo sapiens, UniProt P19784); assay: Kinase panel; type: biochemical
T5 construct: purchased Cerep (receptors, ion channels, transporters); Eurofins Panlabs (kinases)
T5 sequence (P19784 whole entry): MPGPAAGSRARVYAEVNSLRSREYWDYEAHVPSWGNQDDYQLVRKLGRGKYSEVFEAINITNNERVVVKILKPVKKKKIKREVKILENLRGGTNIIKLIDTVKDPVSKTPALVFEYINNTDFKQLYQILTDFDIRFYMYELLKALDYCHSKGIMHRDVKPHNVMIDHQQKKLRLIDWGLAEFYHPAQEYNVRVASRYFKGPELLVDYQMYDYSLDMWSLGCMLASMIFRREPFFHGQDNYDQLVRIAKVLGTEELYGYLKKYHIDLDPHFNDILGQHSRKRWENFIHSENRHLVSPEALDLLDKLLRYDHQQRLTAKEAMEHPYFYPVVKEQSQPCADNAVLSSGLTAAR
Method: as §3

beta 1 (h) = target: T6, beta 1 (h) (Homo sapiens, UniProt P08588); assay: Cerep panel; type: binding
T6 construct: purchased Cerep (receptors, ion channels, transporters); Eurofins Panlabs (kinases)
Method: as §2

5HT6 = 5HT6 (Homo sapiens, UniProt P50406); assay: GPCR panel, cAMP or calcium FLIPR assays; type: cell-based
Method: as §1

PKA(h) = target: T7, PKA(h) (Homo sapiens, UniProt P17612); assay: Kinase panel; type: biochemical
T7 construct: purchased Cerep (receptors, ion channels, transporters); Eurofins Panlabs (kinases)
Method: as §3

[3] = tested on: human CD4+ T cells under Th1 conditions; assay: in vitro human Th1 differentiation, IFNγ production
Method: On day 4, supernatants were analyzed for IL-17A, IL-17F, IL-22 and IFNγ production.
Total CD4^+ T cells were isolated from peripheral blood mononuclear cells (PBMCs) of healthy donors using a CD4^+ T cell Isolation Kit II (Miltenyl Biotec, Auburn, CA), following the manufacturer’s instructions.
In vitro human Th17 and Th1 differentiation
Total CD4+ T cells were isolated from the peripheral blood mononuclear cells (PBMCs) of healthy donors
using a CD4+ T cell Isolation Kit II (Miltenyl Biotec, Auburn, CA), following the manufacturer’s
instructions. Isolated T cells were resuspended in culture medium and added to a 96-well plate at 1×105
beads (prepared using human T cell activation/expansion kit, Miltenyi Biotec) at final concentration of
3x10^6/mL, and cocktail for either Th17 differentiation (10 µg/mL anti-IL-4, 10 µg/mL anti-IFN, 10 ng/mL
IL-1β, 10 ng/mL IL-23, 50 ng/mL IL-6, 3 ng/mL TGFβ and 20 U/mL IL-2), or for Th1 differentiation (10
µg/mL anti-IL-4, 10 ng/mL IL-12, and 20 U/mL IL-2). Cells were cultured at 37°C and 5% CO2 for 3 days.
Supernatants were assayed for accumulated cytokines using MSD multi-spot assay (Meso Scale
Discovery, Rockville, MD) or R&D ELISA kit.

D2L = D2L (Homo sapiens, UniProt P14416); assay: GPCR panel, cAMP or calcium FLIPR assays; type: cell-based
Sequence of D2L (P14416 whole entry): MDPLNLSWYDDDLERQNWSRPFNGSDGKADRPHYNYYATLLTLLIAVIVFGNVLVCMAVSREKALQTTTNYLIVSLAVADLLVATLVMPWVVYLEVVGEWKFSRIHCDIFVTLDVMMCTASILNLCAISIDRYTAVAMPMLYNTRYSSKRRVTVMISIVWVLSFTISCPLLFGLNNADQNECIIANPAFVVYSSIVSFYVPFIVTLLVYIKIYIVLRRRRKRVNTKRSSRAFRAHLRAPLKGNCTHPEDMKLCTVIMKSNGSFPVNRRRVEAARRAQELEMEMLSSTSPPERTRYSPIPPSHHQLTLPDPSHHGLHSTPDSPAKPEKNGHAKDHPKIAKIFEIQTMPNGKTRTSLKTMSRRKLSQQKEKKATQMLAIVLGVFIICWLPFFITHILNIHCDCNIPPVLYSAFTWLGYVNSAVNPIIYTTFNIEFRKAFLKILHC
Method: as §1

JAK3(h) = target: T8, JAK3(h) (Homo sapiens, UniProt P52333); assay: Kinase panel; type: biochemical
T8 construct: purchased Cerep (receptors, ion channels, transporters); Eurofins Panlabs (kinases)
Method: as §3

GAL2 (h) = target: T9, GAL2 (h) (Homo sapiens, UniProt O43603); assay: Cerep panel; type: binding
T9 construct: purchased Cerep (receptors, ion channels, transporters); Eurofins Panlabs (kinases)
T9 sequence (O43603 whole entry): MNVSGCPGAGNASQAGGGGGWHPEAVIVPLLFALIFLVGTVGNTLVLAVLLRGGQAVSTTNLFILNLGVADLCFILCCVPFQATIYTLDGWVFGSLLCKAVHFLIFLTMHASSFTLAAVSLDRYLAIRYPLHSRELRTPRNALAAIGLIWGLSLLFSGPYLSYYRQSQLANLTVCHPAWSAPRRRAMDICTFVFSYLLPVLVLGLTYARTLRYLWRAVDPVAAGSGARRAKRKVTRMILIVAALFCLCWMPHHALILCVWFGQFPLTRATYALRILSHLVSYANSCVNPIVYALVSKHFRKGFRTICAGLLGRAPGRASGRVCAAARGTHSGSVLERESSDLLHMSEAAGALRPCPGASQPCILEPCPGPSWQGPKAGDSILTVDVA
Method: as §2

AR = target: T10, AR (Homo sapiens, UniProt P10275); assay: nuclear receptor cellular GAL4 reporter assay; type: cell-based; conditions: agonist and antagonist mode; read-out: potency in agonist and antagonist mode
T10 construct: expressed in transfected cells

GSK3α(h) = target: T11, GSK3α(h) (Homo sapiens, UniProt P49840); assay: Kinase panel; type: biochemical
T11 construct: purchased Cerep (receptors, ion channels, transporters); Eurofins Panlabs (kinases)
T11 sequence (P49840 whole entry): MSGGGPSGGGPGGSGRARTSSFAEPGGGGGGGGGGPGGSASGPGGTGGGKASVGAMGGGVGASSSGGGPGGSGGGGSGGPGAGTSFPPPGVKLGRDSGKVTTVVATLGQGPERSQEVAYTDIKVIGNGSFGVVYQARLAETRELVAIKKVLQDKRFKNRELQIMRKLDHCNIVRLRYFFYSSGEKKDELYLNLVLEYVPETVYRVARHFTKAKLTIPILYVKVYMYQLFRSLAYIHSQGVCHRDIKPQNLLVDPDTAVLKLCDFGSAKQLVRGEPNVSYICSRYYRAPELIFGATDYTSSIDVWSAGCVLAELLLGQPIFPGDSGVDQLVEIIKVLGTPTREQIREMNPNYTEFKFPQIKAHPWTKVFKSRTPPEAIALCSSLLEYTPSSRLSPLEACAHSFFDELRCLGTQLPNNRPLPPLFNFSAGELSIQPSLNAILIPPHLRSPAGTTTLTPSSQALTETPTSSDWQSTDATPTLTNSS
Method: as §3

Aurora-A(h) = target: T12, Aurora-A(h) (Homo sapiens, UniProt O14965); assay: Kinase panel; type: biochemical
T12 construct: purchased Cerep (receptors, ion channels, transporters); Eurofins Panlabs (kinases)
Method: as §3

kappa (KOP) = target: T13, kappa (KOP) (Rattus norvegicus, UniProt P34975); assay: Cerep panel; type: binding
T13 construct: purchased Cerep (receptors, ion channels, transporters); Eurofins Panlabs (kinases)
T13 sequence (P34975 whole entry): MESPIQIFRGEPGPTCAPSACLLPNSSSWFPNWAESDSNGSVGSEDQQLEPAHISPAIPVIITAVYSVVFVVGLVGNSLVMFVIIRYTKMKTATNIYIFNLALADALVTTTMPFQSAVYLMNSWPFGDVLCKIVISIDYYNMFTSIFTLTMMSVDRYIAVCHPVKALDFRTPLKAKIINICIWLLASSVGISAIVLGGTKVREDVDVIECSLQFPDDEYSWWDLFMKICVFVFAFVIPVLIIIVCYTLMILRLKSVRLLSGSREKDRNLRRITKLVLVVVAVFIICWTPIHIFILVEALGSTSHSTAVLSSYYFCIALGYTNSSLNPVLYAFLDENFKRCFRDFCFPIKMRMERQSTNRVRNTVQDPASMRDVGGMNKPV
Method: as §2

NK3 (h) = target: T14, NK3 (h) (Homo sapiens, UniProt P29371); assay: Cerep panel; type: binding
T14 construct: purchased Cerep (receptors, ion channels, transporters); Eurofins Panlabs (kinases)
Method: as §2

Y1 (h) = target: T15, Y1 (h) (Homo sapiens, UniProt P25929); assay: Cerep panel; type: binding
T15 construct: purchased Cerep (receptors, ion channels, transporters); Eurofins Panlabs (kinases)
Method: as §2

CXCR2 (h) (IL-8B) = target: T16, CXCR2 (h) (IL-8B) (Homo sapiens, UniProt P25025); assay: Cerep panel; type: binding
T16 construct: purchased Cerep (receptors, ion channels, transporters); Eurofins Panlabs (kinases)
T16 sequence (P25025 whole entry): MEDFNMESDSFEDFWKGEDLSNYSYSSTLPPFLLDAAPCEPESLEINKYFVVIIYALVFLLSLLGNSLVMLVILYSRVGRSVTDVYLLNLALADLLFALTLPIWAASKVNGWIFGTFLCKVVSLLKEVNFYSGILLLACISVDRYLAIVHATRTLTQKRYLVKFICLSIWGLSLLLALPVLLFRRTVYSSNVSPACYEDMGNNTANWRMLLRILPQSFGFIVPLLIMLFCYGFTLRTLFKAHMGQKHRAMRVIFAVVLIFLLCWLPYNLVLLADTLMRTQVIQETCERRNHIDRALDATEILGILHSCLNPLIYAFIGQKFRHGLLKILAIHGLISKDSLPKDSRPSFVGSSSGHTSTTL
Method: as §2

Y2 (h) = target: T17, Y2 (h) (Homo sapiens, UniProt P49146); assay: Cerep panel; type: binding
T17 construct: purchased Cerep (receptors, ion channels, transporters); Eurofins Panlabs (kinases)
Method: as §2

D1 = D1 (Homo sapiens, UniProt P21728); assay: GPCR panel, cAMP or calcium FLIPR assays; type: cell-based
Method: as §1

[4] = plasma (5-fold diluted, extrapolated), calculated for 5-fold dilution, read-out: concentration in 5-fold diluted plasma
[5] = plasma, mean ± SD, n=10, read-out: concentration in undiluted plasma

Sequence of CCKA (P32238 whole entry): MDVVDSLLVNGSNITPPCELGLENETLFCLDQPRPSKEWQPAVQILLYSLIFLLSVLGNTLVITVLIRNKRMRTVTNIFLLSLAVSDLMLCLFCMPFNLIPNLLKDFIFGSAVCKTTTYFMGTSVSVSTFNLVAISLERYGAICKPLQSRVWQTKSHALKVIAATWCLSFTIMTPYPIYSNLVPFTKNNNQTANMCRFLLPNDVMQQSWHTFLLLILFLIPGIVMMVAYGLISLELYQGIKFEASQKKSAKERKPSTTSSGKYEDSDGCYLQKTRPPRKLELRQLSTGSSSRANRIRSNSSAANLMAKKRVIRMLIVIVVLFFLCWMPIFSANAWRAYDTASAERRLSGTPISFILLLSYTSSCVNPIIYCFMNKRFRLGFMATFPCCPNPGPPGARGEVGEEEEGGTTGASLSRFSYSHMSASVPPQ

CC1CCCN1C(=O)c1nc(C(=O)NCC(C)(C)O)sc1-c1ccc(C(O)(C(F)(F)F)C(F)(F)F)c(Cl)c1Cl (stereo not shown) [JNJ-61803534]
EC50 (CCKA; agonist): > 10 µM | IC50 (CCKA; antagonist): > 10 µM | EC50 (MOP; agonist): > 12.5 µM | IC50 (MOP; antagonist): > 12.5 µM | inhibition at 1 µM (ORL1 (h) (NOP)): < 10% | inhibition at 10 µM (ORL1 (h) (NOP)): < 10% | disease incidence at day 35 ([1]; 3 mg/kg BID): 100% | reduction of clinical arthritis scores (AUC) vs vehicle, efficacy % inhibition ([1]; 3 mg/kg BID oral): 30% | disease incidence at day 35 ([1]; 10 mg/kg BID): 89% | reduction of clinical arthritis scores (AUC) vs vehicle, efficacy % inhibition ([1]; 10 mg/kg BID oral): 44% | disease incidence at day 35 ([1]; 30 mg/kg BID): 80% | reduction of clinical arthritis scores (AUC) vs vehicle, efficacy % inhibition ([1]; 30 mg/kg BID oral): 66% | disease incidence at day 35 ([1]; 60 mg/kg QD): 100% | reduction of clinical arthritis scores (AUC) vs vehicle, efficacy % inhibition ([1]; 60 mg/kg QD oral, p > 0.05): 13% | disease incidence at day 35 ([1]; 100 mg/kg BID): 45% | reduction of clinical arthritis scores (AUC) vs vehicle, efficacy % inhibition ([1]; 100 mg/kg BID oral): 88% | inhibition of total histopathology score ([1]; 100 mg/kg, BID, oral): 94% | maximum inhibition for final arthritic score ([1]; 100 mg/kg, BID, oral): 88% | maximum inhibition of clinical score ([1]; mouse, in vivo): ~ 90% | activity at 1 µM (PKCα(h)): 102% | activity at 10 µM (PKCα(h)): 99% | concentration at 1 h [2, 4]: 10 ± 2.8 µM | concentration at 2 h [2, 4]: 6.1 ± 3.1 µM | concentration at 4 h [2, 4]: 5 ± 1.7 µM | concentration at 7 h [2, 4]: 2.3 ± 0.5 µM | concentration at 12 h [2, 4]: 0.86 ± 0.4 µM | concentration at 18 h [2, 4]: 0.24 ± 0.1 µM | concentration at 1 h [2, 5]: 31000 ng/mL and 49.8 µM | concentration at 2 h [2, 5]: 18900 ng/mL and 30.4 µM | concentration at 4 h [2, 5]: 15500 ng/mL and 24.9 µM | concentration at 7 h [2, 5]: 11.7 µM and 7280 ng/mL | concentration at 12 h [2, 5]: 4.3 µM and 2670 ng/mL | concentration at 18 h [2, 5]: 1.2 µM and 759 ng/mL | inhibition at 1 µM (5HT2B): < 10% | inhibition at 10 µM (5HT2B): 36.8% | activity at 1 µM (Pim-2(h)): 102% | activity at 10 µM (Pim-2(h)): 107% | IC50 (NK2; read-out: IC50 in follow up functional assays): > 30 µM | effect on NK2 in follow-up functional studies (NK2; up to 30 µM): no effect | inhibition at 1 µM (B2 (h)): < 10% | inhibition at 10 µM (B2 (h)): < 10% | activity at 1 µM (CK2α2(h)): 92% | activity at 10 µM (CK2α2(h)): 100% | inhibition at 1 µM (beta 1 (h)): < 10% | inhibition at 10 µM (beta 1 (h)): < 10% | EC50 (5HT6; agonist): > 12.5 µM | IC50 (5HT6; antagonist): > 12.5 µM | activity at 1 µM (PKA(h)): 85% | activity at 10 µM (PKA(h)): 88% | inhibition of IFNγ production [3]: no inhibition; also recorded: did not inhibit | EC50 (D2L; agonist): > 12.5 µM | IC50 (D2L; antagonist): > 12.5 µM | activity at 1 µM (JAK3(h)): 109% | activity at 10 µM (JAK3(h)): 114% | inhibition at 1 µM (GAL2 (h)): < 10% | inhibition at 10 µM (GAL2 (h)): < 10% | IC50 (AR): > 1.5 µM | activity at 1 µM (GSK3α(h)): 93% | activity at 10 µM (GSK3α(h)): 104% | activity at 1 µM (Aurora-A(h)): 97% | activity at 10 µM (Aurora-A(h)): 102% | inhibition at 1 µM (kappa (KOP)): < 10% | inhibition at 10 µM (kappa (KOP)): < 10% | inhibition at 1 µM (NK3 (h)): < 10% | inhibition at 10 µM (NK3 (h)): < 10% | inhibition at 1 µM (Y1 (h)): < 10% | inhibition at 10 µM (Y1 (h)): < 10% | inhibition at 1 µM (CXCR2 (h) (IL-8B)): < 10% | inhibition at 10 µM (CXCR2 (h) (IL-8B)): < 10% | inhibition at 1 µM (Y2 (h)): < 10% | inhibition at 10 µM (Y2 (h)): < 10% | EC50 (D1; agonist): > 12.5 µM | IC50 (D1; antagonist): > 12.5 µM
